From the kinase profiling compilation of Christmann-Franck et al. (2016)
“And” between values parts separate entries of the source, which are not always exact repeats. Equal values may be shown once.

Experiments:
Assay in all cases: radiometric filter-binding kinase assay, Kinase HotSpot
Settings in all cases: compound 0.5 µM; ATP 10 µM
[1] = target: AKT3 (human) (UniProt Q9Y243)
[2] = target: CAMK2A (human) (UniProt Q9UQM7)
[3] = target: CAMK2B (human) (UniProt Q13554)
[4] = target: CAMK2D (human) (UniProt Q13557)
[5] = target: CAMK2G (human) (UniProt Q13555)
[6] = target: CDK2 CCNE1 (human) (UniProt P24941+P24864)
[7] = target: CDK4 CCND1 (human) (UniProt P24385+P11802)
Chain of CDK4 CCND1 (human) (P11802 whole entry, looked up): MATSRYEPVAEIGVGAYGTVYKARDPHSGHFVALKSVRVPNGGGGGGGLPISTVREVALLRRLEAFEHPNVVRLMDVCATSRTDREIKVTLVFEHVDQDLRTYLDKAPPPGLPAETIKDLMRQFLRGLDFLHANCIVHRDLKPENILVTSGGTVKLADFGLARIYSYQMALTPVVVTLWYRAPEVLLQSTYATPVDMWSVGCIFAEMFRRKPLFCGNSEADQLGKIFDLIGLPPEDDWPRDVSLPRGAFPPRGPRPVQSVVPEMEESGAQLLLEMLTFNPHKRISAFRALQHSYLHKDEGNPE
Chain of CDK4 CCND1 (human) (P24385 whole entry, looked up): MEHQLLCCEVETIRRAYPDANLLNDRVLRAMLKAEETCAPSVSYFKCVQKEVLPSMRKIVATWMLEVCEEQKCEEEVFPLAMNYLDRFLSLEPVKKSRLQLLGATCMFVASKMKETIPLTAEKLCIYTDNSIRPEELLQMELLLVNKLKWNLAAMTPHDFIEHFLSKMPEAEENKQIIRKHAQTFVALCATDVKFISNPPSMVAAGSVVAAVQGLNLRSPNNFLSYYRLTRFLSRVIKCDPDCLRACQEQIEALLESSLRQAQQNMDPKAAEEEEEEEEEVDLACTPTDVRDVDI

[8] = target: CDK4 CCND3 (human) (UniProt P30281+P11802)
Chain of CDK4 CCND3 (human) (P11802 whole entry, looked up): as the sequence (P11802 whole entry, looked up) above
Chain of CDK4 CCND3 (human) (P30281 whole entry, looked up): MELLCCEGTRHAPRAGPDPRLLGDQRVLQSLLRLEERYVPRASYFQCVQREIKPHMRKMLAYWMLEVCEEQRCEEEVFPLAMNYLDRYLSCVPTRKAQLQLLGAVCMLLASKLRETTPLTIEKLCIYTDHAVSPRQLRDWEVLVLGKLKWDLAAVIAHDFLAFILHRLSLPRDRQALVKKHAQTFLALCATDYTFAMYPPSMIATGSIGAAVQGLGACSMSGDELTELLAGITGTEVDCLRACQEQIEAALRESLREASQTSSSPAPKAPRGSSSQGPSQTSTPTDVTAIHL

[9] = target: CDK6 CCND3 (human) (UniProt P30281+Q00534)
[10] = target: CHEK1 (human) (UniProt O14757)
[11] = target: CLK1 (human) (UniProt P49759)
[12] = target: DAPK2 (human) (UniProt Q9UIK4)
[13] = target: DAPK3 (human) (UniProt O43293)
[14] = target: EPHB3 (human) (UniProt P54753)
[15] = target: FRK (human) (UniProt P42685)
Chain of FRK (human) (P42685 whole entry, looked up): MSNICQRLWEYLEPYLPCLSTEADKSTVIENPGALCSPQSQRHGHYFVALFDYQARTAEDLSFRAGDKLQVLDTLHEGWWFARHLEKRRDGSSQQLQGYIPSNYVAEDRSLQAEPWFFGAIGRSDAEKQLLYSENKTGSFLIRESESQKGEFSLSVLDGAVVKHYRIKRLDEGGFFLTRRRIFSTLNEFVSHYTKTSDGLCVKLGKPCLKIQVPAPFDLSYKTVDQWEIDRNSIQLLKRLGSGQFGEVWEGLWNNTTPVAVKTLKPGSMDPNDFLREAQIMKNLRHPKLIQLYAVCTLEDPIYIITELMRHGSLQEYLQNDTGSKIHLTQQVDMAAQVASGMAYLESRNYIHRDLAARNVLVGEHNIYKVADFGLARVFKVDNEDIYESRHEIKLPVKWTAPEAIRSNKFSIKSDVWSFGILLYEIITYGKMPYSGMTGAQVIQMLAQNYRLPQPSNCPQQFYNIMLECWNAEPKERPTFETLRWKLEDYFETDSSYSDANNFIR

[16] = target: HIPK1 (human) (UniProt Q86Z02)
[17] = target: IKBKE (human) (UniProt Q14164)
[18] = target: IRAK1 (human) (UniProt P51617)
[19] = target: ITK (human) (UniProt Q08881)
[20] = target: JAK3 JH1 JH2 (human) (UniProt P52333)
[21] = target: MAP4K2 (human) (UniProt Q12851)
[22] = target: MKNK2 (human) (UniProt Q9HBH9)
[23] = target: PAK1 (human) (UniProt Q13153)
Chain of PAK1 (human) (Q13153 whole entry, looked up): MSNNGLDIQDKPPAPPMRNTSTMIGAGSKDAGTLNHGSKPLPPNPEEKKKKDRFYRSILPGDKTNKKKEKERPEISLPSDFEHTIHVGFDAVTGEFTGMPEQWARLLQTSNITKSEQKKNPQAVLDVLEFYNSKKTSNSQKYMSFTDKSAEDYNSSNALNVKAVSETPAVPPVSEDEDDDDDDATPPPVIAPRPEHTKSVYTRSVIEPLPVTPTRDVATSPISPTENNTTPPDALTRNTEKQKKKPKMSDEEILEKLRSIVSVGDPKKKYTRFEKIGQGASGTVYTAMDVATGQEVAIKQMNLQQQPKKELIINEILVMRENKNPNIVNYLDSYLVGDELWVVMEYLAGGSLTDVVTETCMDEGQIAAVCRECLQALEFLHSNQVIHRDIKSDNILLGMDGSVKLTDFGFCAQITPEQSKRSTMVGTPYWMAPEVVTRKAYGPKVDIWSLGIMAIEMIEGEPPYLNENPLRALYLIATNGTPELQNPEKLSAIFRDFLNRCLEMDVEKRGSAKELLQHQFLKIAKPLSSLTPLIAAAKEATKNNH

[24] = target: PBK (human) (UniProt Q96KB5)
[25] = target: PNCK (human) (UniProt Q6P2M8)
[26] = target: PRKACA (human) (UniProt P17612)
[27] = target: PRKCA (human) (UniProt P17252)
[28] = target: PRKD3 (human) (UniProt O94806)
[29] = target: PRKG1 (human) (UniProt Q13976)
[30] = target: RET (human) (UniProt P07949)
Chain of RET (human) (P07949 whole entry, looked up): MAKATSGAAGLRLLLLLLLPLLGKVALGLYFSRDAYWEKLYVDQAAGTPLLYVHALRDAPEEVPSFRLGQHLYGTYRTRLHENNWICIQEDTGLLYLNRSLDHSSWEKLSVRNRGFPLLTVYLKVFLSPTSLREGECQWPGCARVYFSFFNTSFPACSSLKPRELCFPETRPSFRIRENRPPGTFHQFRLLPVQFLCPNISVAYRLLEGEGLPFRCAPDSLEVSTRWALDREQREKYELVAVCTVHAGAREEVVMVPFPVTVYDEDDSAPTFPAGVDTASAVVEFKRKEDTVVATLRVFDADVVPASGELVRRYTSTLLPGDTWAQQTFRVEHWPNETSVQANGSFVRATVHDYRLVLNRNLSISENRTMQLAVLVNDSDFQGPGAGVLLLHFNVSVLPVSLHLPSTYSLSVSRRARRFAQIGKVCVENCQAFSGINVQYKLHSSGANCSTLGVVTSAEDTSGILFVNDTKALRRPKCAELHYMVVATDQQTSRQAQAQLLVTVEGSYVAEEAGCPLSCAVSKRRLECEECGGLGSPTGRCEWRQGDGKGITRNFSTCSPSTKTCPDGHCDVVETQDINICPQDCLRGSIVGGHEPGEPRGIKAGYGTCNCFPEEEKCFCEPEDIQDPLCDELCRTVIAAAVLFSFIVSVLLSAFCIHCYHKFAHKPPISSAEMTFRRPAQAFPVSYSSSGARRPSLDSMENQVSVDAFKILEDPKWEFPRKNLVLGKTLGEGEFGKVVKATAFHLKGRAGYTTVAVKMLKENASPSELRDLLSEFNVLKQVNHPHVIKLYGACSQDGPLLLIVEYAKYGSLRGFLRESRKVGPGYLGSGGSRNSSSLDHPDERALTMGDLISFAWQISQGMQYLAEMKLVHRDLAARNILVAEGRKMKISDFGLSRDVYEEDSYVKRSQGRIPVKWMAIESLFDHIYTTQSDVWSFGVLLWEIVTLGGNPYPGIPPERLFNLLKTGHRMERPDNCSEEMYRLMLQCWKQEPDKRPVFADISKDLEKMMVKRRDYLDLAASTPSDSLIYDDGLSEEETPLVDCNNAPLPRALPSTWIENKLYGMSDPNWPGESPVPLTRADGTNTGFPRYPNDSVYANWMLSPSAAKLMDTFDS

[31] = target: SGK3 (human) (UniProt Q96BR1)
[32] = target: SRPK2 (human) (UniProt P78362)
[33] = target: SRPK3 (human) (UniProt Q9UPE1)
[34] = target: STK24 (human) (UniProt Q9Y6E0)
Chain of STK24 (human) (Q9Y6E0 whole entry, looked up): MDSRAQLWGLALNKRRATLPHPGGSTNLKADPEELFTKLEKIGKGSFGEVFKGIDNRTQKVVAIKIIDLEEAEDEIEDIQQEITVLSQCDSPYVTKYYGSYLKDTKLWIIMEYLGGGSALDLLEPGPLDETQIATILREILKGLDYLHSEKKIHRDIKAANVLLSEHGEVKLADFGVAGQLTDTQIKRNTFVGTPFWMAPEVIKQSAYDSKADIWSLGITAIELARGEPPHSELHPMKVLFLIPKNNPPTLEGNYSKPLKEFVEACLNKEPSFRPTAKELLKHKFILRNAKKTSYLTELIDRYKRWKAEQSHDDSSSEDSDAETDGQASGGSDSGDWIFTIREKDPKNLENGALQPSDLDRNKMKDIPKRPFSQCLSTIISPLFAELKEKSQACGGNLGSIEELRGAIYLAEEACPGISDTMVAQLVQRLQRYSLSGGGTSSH

[35] = target: STK38 (human) (UniProt Q15208)
Chain of STK38 (human) (Q15208 whole entry, looked up): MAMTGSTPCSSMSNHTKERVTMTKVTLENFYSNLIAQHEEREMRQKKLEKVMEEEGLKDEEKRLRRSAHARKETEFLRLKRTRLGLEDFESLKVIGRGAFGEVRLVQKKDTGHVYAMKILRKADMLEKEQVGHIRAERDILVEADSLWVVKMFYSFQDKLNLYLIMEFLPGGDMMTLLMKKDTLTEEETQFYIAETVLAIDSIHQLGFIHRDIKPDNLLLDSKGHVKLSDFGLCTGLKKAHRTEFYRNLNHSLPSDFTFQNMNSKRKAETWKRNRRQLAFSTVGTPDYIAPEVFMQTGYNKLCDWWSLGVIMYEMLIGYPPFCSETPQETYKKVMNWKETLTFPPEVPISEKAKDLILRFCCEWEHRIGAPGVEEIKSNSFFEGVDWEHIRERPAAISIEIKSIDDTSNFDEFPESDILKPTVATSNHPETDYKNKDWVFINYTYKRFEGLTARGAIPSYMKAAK

[36] = target: SYK (human) (UniProt P43405)
[37] = target: TAOK1 (human) (UniProt Q7L7X3)
[38] = target: TBK1 (human) (UniProt Q9UHD2)
Chain of TBK1 (human) (Q9UHD2 whole entry, looked up): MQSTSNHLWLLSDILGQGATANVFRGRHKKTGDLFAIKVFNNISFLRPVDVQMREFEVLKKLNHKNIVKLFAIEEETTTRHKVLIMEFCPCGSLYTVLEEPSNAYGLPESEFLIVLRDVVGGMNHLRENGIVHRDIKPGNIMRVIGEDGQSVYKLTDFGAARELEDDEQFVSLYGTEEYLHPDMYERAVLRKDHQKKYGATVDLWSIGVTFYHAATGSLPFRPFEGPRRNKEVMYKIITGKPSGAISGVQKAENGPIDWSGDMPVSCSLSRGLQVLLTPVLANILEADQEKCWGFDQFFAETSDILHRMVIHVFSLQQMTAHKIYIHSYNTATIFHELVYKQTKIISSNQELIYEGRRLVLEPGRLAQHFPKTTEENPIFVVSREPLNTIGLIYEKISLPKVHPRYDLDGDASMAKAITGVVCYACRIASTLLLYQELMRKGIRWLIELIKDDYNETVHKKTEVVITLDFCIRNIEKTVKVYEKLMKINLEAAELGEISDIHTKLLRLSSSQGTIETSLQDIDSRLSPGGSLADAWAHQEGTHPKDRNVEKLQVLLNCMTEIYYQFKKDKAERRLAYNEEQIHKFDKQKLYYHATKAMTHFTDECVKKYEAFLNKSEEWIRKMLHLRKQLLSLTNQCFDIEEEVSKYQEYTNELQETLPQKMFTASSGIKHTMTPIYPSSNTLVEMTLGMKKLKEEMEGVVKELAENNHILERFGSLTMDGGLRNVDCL

[39] = target: TEC (human) (UniProt P42680)
[40] = target: TGFBR2 (human) (UniProt P37173)
[41] = target: TSSK2 (human) (UniProt Q96PF2)
[42] = target: VRK1 (human) (UniProt Q99986)

## CCC(=O)Nc1ccc2ncnc(Nc3cccc(Br)c3)c2c1
[1]
  residual activity: 94.4%
[2]
  residual activity: 85.7%
[3]
  residual activity: 105%
[4]
  residual activity: 113%
[5]
  residual activity: 105%
[6]
  residual activity: 84.9%
[7]
  residual activity: 101%
[8]
  residual activity: 90.4%
[9]
  residual activity: 94.8%
[10]
  residual activity: 114%
[11]
  residual activity: 84.5%
[12]
  residual activity: 121%
[13]
  residual activity: 104%
[14]
  residual activity: 89.4%
[15]
  residual activity: 66.8%
[16]
  residual activity: 104%
[17]
  residual activity: 94.9%
[18]
  residual activity: 92.7%
[19]
  residual activity: 89.7%
[20]
  residual activity: 98.3%
[21]
  residual activity: 90.5%
[22]
  residual activity: 55.6%
[23]
  residual activity: 96.3%
[24]
  residual activity: 96.2%
[25]
  residual activity: 96%
[26]
  residual activity: 94.6%
[27]
  residual activity: 96.5%
[28]
  residual activity: 85.9%
[29]
  residual activity: 101% and 110%
[30]
  residual activity: 106%
[31]
  residual activity: 92.8%
[32]
  residual activity: 88.6%
[33]
  residual activity: 97%
[34]
  residual activity: 102%
[35]
  residual activity: 100%
[36]
  residual activity: 94.3%
[37]
  residual activity: 79.1%
[38]
  residual activity: 95.6%
[39]
  residual activity: 103%
[40]
  residual activity: 116%
[41]
  residual activity: 82.8%
[42]
  residual activity: 94.4%

## CO[C@H]1CC2CC[C@@H](C)[C@@](O)(O2)C(=O)C(=O)N2CCCC[C@H]2C(=O)OC([C@H](C)C[C@@H]2CC[C@@H](O)[C@H](OC)C2)CC(=O)[C@H](C)/C=C(\C)[C@@H](O)[C@@H](OC)C(=O)[C@H](C)C[C@H](C)/C=C/C=C/C=C/1C (stereo partly specified)
[1]
  residual activity: 97.8%
[2]
  residual activity: 105%
[3]
  residual activity: 99.2%
[4]
  residual activity: 96.1%
[5]
  residual activity: 101%
[6]
  residual activity: 91.3%
[7]
  residual activity: 115%
[8]
  residual activity: 104%
[9]
  residual activity: 105%
[10]
  residual activity: 107%
[11]
  residual activity: 107%
[12]
  residual activity: 112%
[13]
  residual activity: 104%
[14]
  residual activity: 103%
[15]
  residual activity: 106%
[16]
  residual activity: 99.1%
[17]
  residual activity: 99.4%
[18]
  residual activity: 118%
[19]
  residual activity: 92.5%
[20]
  residual activity: 92.4%
[21]
  residual activity: 111%
[22]
  residual activity: 88.1%
[23]
  residual activity: 95.6%
[24]
  residual activity: 103%
[25]
  residual activity: 95.4%
[26]
  residual activity: 99.8%
[27]
  residual activity: 108%
[28]
  residual activity: 95.6%
[29]
  residual activity: 91%
[30]
  residual activity: 98.7%
[31]
  residual activity: 98.1%
[32]
  residual activity: 104%
[33]
  residual activity: 97.2%
[34]
  residual activity: 93.5%
[35]
  residual activity: 92.8%
[36]
  residual activity: 97.1%
[37]
  residual activity: 102%
[38]
  residual activity: 94.7%
[39]
  residual activity: 138%
[40]
  residual activity: 136%
[41]
  residual activity: 99.8%
[42]
  residual activity: 108%

## c1ccc(-c2n[nH]cc2-c2ccnc3ccccc23)nc1
[1]
  residual activity: 92.6%
[2]
  residual activity: 102%
[3]
  residual activity: 97.2%
[4]
  residual activity: 101%
[5]
  residual activity: 85.9%
[6]
  residual activity: 91.3%
[7]
  residual activity: 101%
[8]
  residual activity: 102%
[9]
  residual activity: 98.2%
[10]
  residual activity: 99.7%
[11]
  residual activity: 106%
[12]
  residual activity: 102%
[13]
  residual activity: 101%
[14]
  residual activity: 97.1%
[15]
  residual activity: 92.8%
[16]
  residual activity: 99.9%
[17]
  residual activity: 101%
[18]
  residual activity: 124%
[19]
  residual activity: 102%
[20]
  residual activity: 92.7%
[21]
  residual activity: 103%
[22]
  residual activity: 81.9%
[23]
  residual activity: 96.3%
[24]
  residual activity: 91.9%
[25]
  residual activity: 98.3%
[26]
  residual activity: 107%
[27]
  residual activity: 98.5%
[28]
  residual activity: 56.1%
[29]
  residual activity: 86% and 92.7%
[30]
  residual activity: 93.8%
[31]
  residual activity: 97.4%
[32]
  residual activity: 97.2%
[33]
  residual activity: 88.9%
[34]
  residual activity: 96.8%
[35]
  residual activity: 111%
[36]
  residual activity: 99.7%
[37]
  residual activity: 93%
[38]
  residual activity: 92.6%
[39]
  residual activity: 106%
[40]
  residual activity: 109%
[41]
  residual activity: 83.5%
[42]
  residual activity: 92.6%
